Measured values taken from US8877161B2 (priority 2011, dated 2014).
pIC50: −log10 of the molar value. Like-named read-outs stand apart in the source and are kept apart here. Marks after values point to notes of the source that are not given here. Where a SMILES comes first, the peptide text is derived from it.

How the values were obtained:
Assay type in all cases: binding
[1] = biological target: cholera toxin B subunit (CTB); ligand LOSGM1 (Vibrio cholerae serotype O1, UniProt P01556)
[2] = biological target: cholera toxin B subunit (CTB); ligand GM1 (Vibrio cholerae serotype O1, UniProt P01556)
AbGD1b (GD1b/AbGD1b) = conditions: lot # D710-6; for Inhibition percent at IC50AbGM1-1: GD1b/AbGD1b: peptide at its IC50 AbGM1-1
[3] = tested on: rabbit anti-GM1 antibodies (AbGM1); conditions: for Inhibition percent at IC50 AbGM1-1: AbGM1-3 / Inhibition percent at IC50 AbGM1-1: AbeGM1-4 / Inhibition percent at IC50 AbGM1-1: AbGM1-1 / Inhibition percent at IC50AbGM1-1: GM1/AbGM1-1 / Inhibition percent at IC50 AbGM1-1: AbGM1-5 / Inhibition percent at IC50 AbGM1-1: AbGM1-2: peptide at its IC50 AbGM1-1; for Inhibition percent at IC50 AbGM1-1: AbGM1-3: antibody lot # 101J; for Inhibition percent at IC50 AbGM1-1: AbeGM1-4: antibody lot # 104H; for Inhibition percent at IC50 AbGM1-1: AbGM1-1: antibody lot # 431A, means of 4 values; for pIC50: AbGM1-1 lot # 431A
AbGM4 (GM4/AbGM4) = conditions: lot # GMR6; for Inhibition percent at IC50AbGM1-1: GM4/AbGM4: peptide at its IC50 AbGM1-1
AbF-GM1 (F-GM1/AbF-GM1) = conditions: lot # G351; for Inhibition percent at IC50AbGM1-1: F-GM1/AbF-GM1: peptide at its IC50 AbGM1-1
AbGM2 (GM2/AbGM2) = conditions: lot # D710-2; for Inhibition percent at IC50AbGM1-1: GM2/AbGM2: peptide at its IC50 AbGM1-1
AbGD1a (GD1a/AbGD1a) = conditions: lot # 109H; for Inhibition percent at IC50AbGM1-1: GD1a/AbGD1a: peptide at its IC50 AbGM1-1
[4] = biological target: cholera toxin B subunit (CTB); ligand GD1b (Vibrio cholerae serotype O1, UniProt P01556)
AbSGPG (SGPG/AbSGPG) = conditions: lot # D710-5; for Inhibition percent at IC50AbGM1-1: SGPG/AbSGPG: peptide at its IC50 AbGM1-1
[5] = biological target: cholera toxin B subunit (CTB); ligand fucosyl-GM1 (F-GM1) (Vibrio cholerae serotype O1, UniProt P01556)
[6] = biological target: cholera toxin B subunit (CTB); ligand Lipid AP (Vibrio cholerae serotype O1, UniProt P01556)
AbGD3 (GD3/AbGD3) = conditions: peptide at its IC50 AbGM1-1; lot # R24
[7] = treatment with 500 pmol/mL of PGM1-2
[8] = antibody lot # 105T, dilution 1:500
[9] = antibody lot # 431B, dilution 1:500

Chain of cholera toxin B subunit (CTB); ligand GD1b (P01556 22-124 limits assumed): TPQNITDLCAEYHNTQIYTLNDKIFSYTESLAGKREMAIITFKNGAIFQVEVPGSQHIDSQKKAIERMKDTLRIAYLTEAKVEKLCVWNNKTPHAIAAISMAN
Chain of cholera toxin B subunit (CTB); ligand GM1 (P01556 22-124 limits assumed): as above
Chain of cholera toxin B subunit (CTB); ligand fucosyl-GM1 (F-GM1) (P01556 22-124 limits assumed): as above
Chain of cholera toxin B subunit (CTB); ligand Lipid AP (P01556 22-124 limits assumed): as above
Chain of cholera toxin B subunit (CTB); ligand LOSGM1 (P01556 22-124 limits assumed): as above

| Compound | Inhibition percent at IC50 GM1: LOSGM1 [1] [%] | IC50 GM1 [2] [nM] | Inhibition percent at IC50 GM1: GM1 [2] [%] | Inhibition percent at IC50 AbGM1-1: AbGM1-3 ([3]; dilution 1:500) | Inhibition percent at IC50 AbGM1-1: AbeGM1-4 ([3]; dilution 1:500) | Inhibition percent at IC50 AbGM1-1: AbGM1-1 ([3]; dilution 1:500) | Inhibition percent at IC50 GM1: GD1b [4] [%] | Inhibition percent at IC50 GM1: F-GM1 [5] [%] | Inhibition percent at IC50 GM1: Lipid AP [6] [%] | Inhibition percent at IC50AbGM1-1: GD3/AbGD3 (AbGD3 (GD3/AbGD3)) [%] | Inhibition percent at IC50AbGM1-1: GD1b/AbGD1b (AbGD1b (GD1b/AbGD1b)) [%] | pIC50 ([3]; Table 4, dilution 1:500) | pIC50 ([3]; Table 5) | Inhibition percent at IC50AbGM1-1: GM1/AbGM1-1 ([3]; Table 5, lot # 431A) | Inhibition percent at IC50 AbGM1-1: AbGM1-5 [3, 8] [%] | Inhibition percent at IC50 AbGM1-1: AbGM1-2 [3, 9] [%] | Inhibition percent at IC50AbGM1-1: GM4/AbGM4 (AbGM4 (GM4/AbGM4)) [%] | Inhibition percent at IC50AbGM1-1: F-GM1/AbF-GM1 (AbF-GM1 (F-GM1/AbF-GM1)) [%] | Inhibition percent at IC50AbGM1-1: GM2/AbGM2 (AbGM2 (GM2/AbGM2)) [%] | Inhibition percent at IC50AbGM1-1: GD1a/AbGD1a (AbGD1a (GD1a/AbGD1a)) [%] | further results |
| --- | --- | --- | --- | --- | --- | --- | --- | --- | --- | --- | --- | --- | --- | --- | --- | --- | --- | --- | --- | --- | --- |
| CSCC[C@H](NC(=O)[C@H](CO)NC(=O)[C@@H]1CCCN1C(=O)[C@H](Cc1ccccc1)NC(=O)[C@H](Cc1c[nH]c2ccccc12)NC(=O)[C@H](CCCCN)NC(=O)[C@H](Cc1c[nH]cn1)NC(=O)[C@H](Cc1ccccc1)NC(=O)[C@@H]1CCCN1C(=O)[C@H](CO)NC(=O)[C@@H](N)Cc1ccc(O)cc1)C(=O)N[C@@H](Cc1c[nH]cn1)C(=O)O [PGM1-2, YSPFHKWFPSMH] (H-YSPFHKWFPSMH-OH; N-terminus and C-terminus assumed) | 47.9 | 46.1 | 50 | 65.7^a percent | 15.1^a percent | 0^a percent | 21.9 | 52.1 | 0 | – | – | – | – | – | – | – | – | – | – | – | Inhibition percent: GD1b/AbGD1b (AbGD1b (GD1b/AbGD1b); [7]): 23.6^b percent; Inhibition percent: GM1/AbGM1-1 ([3]; Table 5, treatment with 500 pmol/mL of PGM1-2, lot # 431A): 0^b percent; Inhibition percent: AbGM1-5 ([3]; treatment with 500 pmol/mL of PGM1-2, antibody lot # 105T, dilution 1:500): 0^b percent; Inhibition percent: AbGM1-2 ([3]; treatment with 500 pmol/mL of PGM1-2, antibody lot # 431B, dilution 1:500): 32.1^b percent; Inhibition percent: GM4/AbGM4 (AbGM4 (GM4/AbGM4); [7]): 0^b percent; Inhibition percent: F-GM1/AbF-GM1 (AbF-GM1 (F-GM1/AbF-GM1); [7]): 0^b percent; Inhibition percent: GM2/AbGM2 (AbGM2 (GM2/AbGM2); [7]): 0^b percent; Inhibition percent: GD1a/AbGD1a (AbGD1a (GD1a/AbGD1a); [7]): 0^b percent; Inhibition percent: SGPG/AbSGPG (AbSGPG (SGPG/AbSGPG); [7]): 0^b percent |
| DASKALRSSGMP [PGM1-6] | – | – | 0 | 0% | 55.1% | 50% | – | – | – | 0 | 8.9 | 6.53 | 6.53 | 50% | 18.7 | 45.1 | 0 | 23.4 | 0 | 0 | Inhibition percent: LOSGM1 [1]: 0^d percent; Inhibition percent: GD1b [4]: 0^d percent; Inhibition percent at IC50AbGM1-1: SGPG/AbSGPG (AbSGPG (SGPG/AbSGPG)): 0%; Inhibition percent: F-GM1 [5]: 0^d percent; Inhibition percent: Lipid AP [6]: 0^d percent |
| CC[C@H](C)[C@H](NC(=O)[C@@H](N)CCC(N)=O)C(=O)N[C@@H](CC(N)=O)C(=O)N[C@H](C(=O)N[C@@H](C)C(=O)N[C@@H](CCCCN)C(=O)N[C@@H](Cc1c[nH]c2ccccc12)C(=O)N[C@@H](Cc1c[nH]c2ccccc12)C(=O)N[C@@H](CCCCN)C(=O)N[C@H](C(=O)N[C@@H](Cc1c[nH]cn1)C(=O)N[C@@H](Cc1ccccc1)C(=O)O)[C@@H](C)O)[C@@H](C)O [PGM1-5, QINTAKWWKTHF] (H-QINTAKWWKTHF-OH) | 50.0 | 34.4 | 50 | 12.1% | 0% | 50% | 39.8 | 52.1 | 0 | 0 | 0 | 6.32 | 6.32 | 50% | 32.9 | 0 | 0 | 0 | 6.5 | 0 | Inhibition percent at IC50AbGM1-1: SGPG/AbSGPG (AbSGPG (SGPG/AbSGPG)): 0% |
| CC(C)C[C@H](NC(=O)[C@H](CC(N)=O)NC(=O)[C@@H]1CCCN1C(=O)[C@H](Cc1ccccc1)NC(=O)[C@H](Cc1c[nH]c2ccccc12)NC(=O)[C@@H](NC(=O)[C@H](CCCCN)NC(=O)[C@H](Cc1c[nH]c2ccccc12)NC(=O)[C@H](CO)NC(=O)[C@@H](N)C(C)C)[C@@H](C)O)C(=O)N[C@@H](C)C(=O)N[C@H](C(=O)O)C(C)C [PGM1-1, VSWKTWFPNLAV] (H-VSWKTWFPNLAV-OH; N-terminus and C-terminus assumed) | 50.8 | 38.0 | – | 0% | 72.1% | 50^a percent | 39.9 | 45.8 | 0 | 0 | 32.1 | 6.56 | 6.56 | 50^b percent | 44.6 | 27.1 | 0 | 42.1 | 11.2 | 0 | Inhibition percent at IC50AbGM1-1: SGPG/AbSGPG (AbSGPG (SGPG/AbSGPG)): 0% |
| CC[C@H](C)[C@H](N)C(=O)N1CCC[C@H]1C(=O)N[C@@H](CCC(N)=O)C(=O)N[C@H](C(=O)N[C@@H](Cc1c[nH]c2ccccc12)C(=O)N[C@@H](CCCNC(=N)N)C(=O)N[C@@H](CC(=O)O)C(=O)N[C@@H](Cc1c[nH]c2ccccc12)C(=O)N[C@@H](Cc1ccccc1)C(=O)N[C@@H](CCCCN)C(=O)N[C@@H](CC(C)C)C(=O)N1CCC[C@H]1C(=O)O)C(C)C [PGM1-3, IPQVWRDWFKLP] (H-IPQVWRDWFKLP-OH) | 52.1 | 9.6 | 50 | 42.5% | 30.3% | 50% | 37.9 | 43.9 | 0 | 0 | 0 | 7.12 | 7.12 | 50% | 59.1 | 62.1 | 0 | 0 | 0 | 0 | Inhibition percent at IC50AbGM1-1: SGPG/AbSGPG (AbSGPG (SGPG/AbSGPG)): 0% |
| CC(C)C[C@H](NC(=O)[C@H](CCCCN)NC(=O)[C@@H](NC(=O)[C@H](Cc1ccccc1)NC(=O)[C@H](Cc1c[nH]c2ccccc12)NC(=O)[C@H](C)NC(=O)[C@@H]1CCCN1C(=O)[C@@H](N)Cc1ccccc1)[C@@H](C)O)C(=O)N[C@@H](Cc1ccc(O)cc1)C(=O)N1CCC[C@H]1C(=O)N[C@@H](CCCNC(=N)N)C(=O)N[C@H](C(=O)O)[C@@H](C)O [PGM1-4, FPAWFTKLYPRT] (H-FPAWFTKLYPRT-OH) | 51.1 | 77.4 | 50 | 12.6% | 33.9% | 50% | 18.9 | 62.1 | 0 | 0 | 12.1 | 6.76 | 6.76 | 50% | 0 | 70.1 | 0 | 25.7 | 0 | 0 | Inhibition percent at IC50AbGM1-1: SGPG/AbSGPG (AbSGPG (SGPG/AbSGPG)): 0% |
